Earlier results, collected in patent publication US20120184023A1, “Method of Preparing A Glycoside Of A Mono- Or Diacylglycerol Product From A Plant Material” (HYBEN VITAL LICENS APS, priority 2006, published 2012).

How the values were obtained:
mononuclear leukocytes = details: reported in WO 03/043613
[1] = tested on: poly-morphonuclear monocytes; details: reported in WO 03/043613

CC/C=C\C/C=C\C/C=C\CCCCCCCC(=O)OCC(CO[C@@H]1O[C@H](CO)[C@H](O)[C@H](O)[C@H]1O)OC(=O)CCCCCCC/C=C\C/C=C\C/C=C\CC (stereo partly drawn) [GOPO, 3-β-D-galactopyranosyloxy-2-(octadeca-9Z,12Z,15Z-trienoyloxy) propanyloctadeca-9Z,12Z,15Z-trienoate]
chemotaxis of mononuclear leukocytes (mononuclear leukocytes): alleviating
chemiluminescence of poly-morphonuclear monocytes [1]: alleviating chemiluminescence
